Organism: Rattus norvegicus
Experiment: DrugMatrix - Regimen: Daily Repeat
Format: toxicity, organism-based, Sprague-Dawley
Parameters: regimen Daily Repeat, gender Male, age 6-8 weeks
Conditions: in vivo, po, route oral GAVAGE, vehicle 100 % WATER; for BASOPHIL / EOSINOPHIL / ERYTHROCYTE COUNT / HEMATOCRIT / HEMOGLOBIN / LEUKOCYTE COUNT / LYMPHOCYTE / MEAN CORPUSCULAR HEMOGLOBIN / MEAN CORPUSCULAR HEMOGLOBIN CONCENTRATION / MEAN CORPUSCULAR VOLUME / MONOCYTE / NEUTROPHIL / PLATELET COUNT / ABSOLUTE BASOPHIL / ABSOLUTE EOSINOPHIL / ABSOLUTE LYMPHOCYTE / ABSOLUTE MONOCYTE / ABSOLUTE SEGMENTED NEUTROPHIL / NUCLEATED RED BLOOD CELLS: tissue Blood; for ALANINE AMINOTRANSFERASE / ALBUMIN / ALKALINE PHOSPHATASE / ASPARTATE AMINOTRANSFERASE / BLOOD UREA NITROGEN / CARBON DIOXIDE / CHLORIDE / CHOLESTEROL / CREATINE PHOSPHOKINASE / CREATININE / GLUCOSE / LACTATE DEHYDROGENASE / LIPASE / PHOSPHORUS / POTASSIUM / SODIUM / TOTAL BILIRUBIN / TOTAL PROTEIN / URIC ACID: tissue Plasma
[1] = 20 mg/kg, 72 h, dose level High, time 3 day
[2] = 20 mg/kg, 120 h, dose level High, time 5 day
[3] = 20 mg/kg, […], dose level High, time 14 day
[4] = 44 mg/kg, 72 h, dose level Low, time 3 day
[5] = 44 mg/kg, 120 h, dose level Low, time 5 day

SMILES: C=CC=O [ACROLEIN]
- BASOPHIL [1]: 0.17%
- EOSINOPHIL [1]: 1.23%
- ERYTHROCYTE COUNT [1]: 6.79 x10E6/uL
- HEMATOCRIT [1]: 44.43%
- HEMOGLOBIN [1]: 14.33 G/DL
- LEUKOCYTE COUNT [1]: 13.23 x10E3/uL
- LYMPHOCYTE [1]: 50.33%
- MEAN CORPUSCULAR HEMOGLOBIN [1]: 21.17 pg
- MEAN CORPUSCULAR HEMOGLOBIN CONCENTRATION [1]: 32.27 G/DL
- MEAN CORPUSCULAR VOLUME [1]: 65.47 fL
- MONOCYTE [1]: 5.93%
- NEUTROPHIL [1]: 40.03%
- PLATELET COUNT [1]: 1336 x10E3/uL
- ALANINE AMINOTRANSFERASE [1]: 33.67 u/L
- ALBUMIN [1]: 3.47 G/DL
- ALKALINE PHOSPHATASE [1]: 159 u/L
- ASPARTATE AMINOTRANSFERASE [1]: 72.67 u/L
- BLOOD UREA NITROGEN [1]: 13 mg/dL
- CARBON DIOXIDE [1]: 27.67 mmol/L
- CHLORIDE [1]: 105.67 MEQ/L
- CHOLESTEROL [1]: 122.33 mg/dL
- CREATINE PHOSPHOKINASE [1]: 216.67 u/L
- CREATININE [1]: 0.43 mg/dL
- GLUCOSE [1]: 151.67 mg/dL
- LACTATE DEHYDROGENASE [1]: 35 u/L
- LIPASE [1]: 24.33 u/L
- PHOSPHORUS [1]: 11.6 mg/dL
- POTASSIUM [1]: 5.87 MEQ/L
- SODIUM [1]: 148 MEQ/L
- TOTAL BILIRUBIN [1]: 0.27 mg/dL
- TOTAL PROTEIN [1]: 5.43 G/DL
- URIC ACID [1]: 1.27 mg/dL
- BASOPHIL [2]: 0.23%
- EOSINOPHIL [2]: 0.37%
- ERYTHROCYTE COUNT [2]: 7 x10E6/uL
- HEMATOCRIT [2]: 45.17%
- HEMOGLOBIN [2]: 14.17 G/DL
- LEUKOCYTE COUNT [2]: 18.4 x10E3/uL
- LYMPHOCYTE [2]: 56.63%
- MEAN CORPUSCULAR HEMOGLOBIN [2]: 20.2 pg
- MEAN CORPUSCULAR HEMOGLOBIN CONCENTRATION [2]: 31.37 G/DL
- MEAN CORPUSCULAR VOLUME [2]: 64.53 fL
- MONOCYTE [2]: 5.23%
- NEUTROPHIL [2]: 35.47%
- PLATELET COUNT [2]: 1464.67 x10E3/uL
- ALANINE AMINOTRANSFERASE [2]: 36.33 u/L
- ALBUMIN [2]: 3.33 G/DL
- ALKALINE PHOSPHATASE [2]: 202.33 u/L
- ASPARTATE AMINOTRANSFERASE [2]: 71 u/L
- BLOOD UREA NITROGEN [2]: 15 mg/dL
- CARBON DIOXIDE [2]: 23.67 mmol/L
- CHLORIDE [2]: 110.33 MEQ/L
- CHOLESTEROL [2]: 106 mg/dL
- CREATINE PHOSPHOKINASE [2]: 207.67 u/L
- CREATININE [2]: 0.27 mg/dL
- GLUCOSE [2]: 140 mg/dL
- LACTATE DEHYDROGENASE [2]: 58 u/L
- LIPASE [2]: 40.33 u/L
- PHOSPHORUS [2]: 11.4 mg/dL
- POTASSIUM [2]: 5.6 MEQ/L
- SODIUM [2]: 152.33 MEQ/L
- TOTAL BILIRUBIN [2]: 0.23 mg/dL
- TOTAL PROTEIN [2]: 5.37 G/DL
- URIC ACID [2]: 1.73 mg/dL
- BASOPHIL [3]: 0.9%
- EOSINOPHIL [3]: 0.5%
- ERYTHROCYTE COUNT [3]: 7.34 x10E6/uL
- HEMATOCRIT [3]: 43.1%
- HEMOGLOBIN [3]: 14.5 G/DL
- LEUKOCYTE COUNT [3]: 33.86 x10E3/uL
- LYMPHOCYTE [3]: 32.7%
- MEAN CORPUSCULAR HEMOGLOBIN [3]: 19.8 pg
- MEAN CORPUSCULAR HEMOGLOBIN CONCENTRATION [3]: 33.6 G/DL
- MEAN CORPUSCULAR VOLUME [3]: 58.8 fL
- MONOCYTE [3]: 5.2%
- NEUTROPHIL [3]: 59.1%
- PLATELET COUNT [3]: 2095 x10E3/uL
- ALANINE AMINOTRANSFERASE [3]: 40 u/L
- ALBUMIN [3]: 3.6 G/DL
- ALKALINE PHOSPHATASE [3]: 220 u/L
- ASPARTATE AMINOTRANSFERASE [3]: 68 u/L
- BLOOD UREA NITROGEN [3]: 13 mg/dL
- CARBON DIOXIDE [3]: 31 mmol/L
- CHLORIDE [3]: 101 MEQ/L
- CHOLESTEROL [3]: 116 mg/dL
- CREATINE PHOSPHOKINASE [3]: 267 u/L
- CREATININE [3]: 0.4 mg/dL
- GLUCOSE [3]: 145 mg/dL
- LACTATE DEHYDROGENASE [3]: 109 u/L
- LIPASE [3]: 33 u/L
- PHOSPHORUS [3]: 9.2 mg/dL
- POTASSIUM [3]: 6.6 MEQ/L
- SODIUM [3]: 147 MEQ/L
- TOTAL BILIRUBIN [3]: 0.5 mg/dL
- TOTAL PROTEIN [3]: 5.7 G/DL
- URIC ACID [3]: 2.5 mg/dL

SMILES: Cn1c(=O)c2c(ncn2CC2OCCO2)n(C)c1=O [DOXOFYLLINE]
- ABSOLUTE BASOPHIL [4]: 0 CELLS/uL
- ABSOLUTE EOSINOPHIL [4]: 159 CELLS/uL
- ABSOLUTE LYMPHOCYTE [4]: 15168.33 CELLS/uL
- ABSOLUTE MONOCYTE [4]: 106 CELLS/uL
- ABSOLUTE SEGMENTED NEUTROPHIL [4]: 1466.67 CELLS/uL
- BASOPHIL [4]: 0%
- EOSINOPHIL [4]: 1%
- ERYTHROCYTE COUNT [4]: 5.65 x10E6/uL
- HEMATOCRIT [4]: 36.33%
- HEMOGLOBIN [4]: 13.93 G/DL
- LEUKOCYTE COUNT [4]: 16.9 x10E3/uL
- LYMPHOCYTE [4]: 89.67%
- MEAN CORPUSCULAR HEMOGLOBIN [4]: 24.67 pg
- MEAN CORPUSCULAR HEMOGLOBIN CONCENTRATION [4]: 38.37 G/DL
- MEAN CORPUSCULAR VOLUME [4]: 64.23 fL
- MONOCYTE [4]: 0.67%
- NEUTROPHIL [4]: 8.67%
- NUCLEATED RED BLOOD CELLS [4]: 0 /100WBC
- PLATELET COUNT [4]: 1263 x10E3/uL
- ALANINE AMINOTRANSFERASE [4]: 51.33 u/L
- ALBUMIN [4]: 4.3 G/DL
- ALKALINE PHOSPHATASE [4]: 393.67 u/L
- ASPARTATE AMINOTRANSFERASE [4]: 90.67 u/L
- BLOOD UREA NITROGEN [4]: 15.67 mg/dL
- CARBON DIOXIDE [4]: 27 mmol/L
- CHLORIDE [4]: 100.33 MEQ/L
- CHOLESTEROL [4]: 80.67 mg/dL
- CREATINE PHOSPHOKINASE [4]: 250.67 u/L
- CREATININE [4]: 0.19 mg/dL
- GLUCOSE [4]: 159.33 mg/dL
- LACTATE DEHYDROGENASE [4]: 324 u/L
- LIPASE [4]: 9.67 u/L
- PHOSPHORUS [4]: 14.4 mg/dL
- POTASSIUM [4]: 7.21 MEQ/L
- SODIUM [4]: 145.63 MEQ/L
- TOTAL BILIRUBIN [4]: 0.17 mg/dL
- TOTAL PROTEIN [4]: 5.9 G/DL
- URIC ACID [4]: 1.83 mg/dL
- ABSOLUTE BASOPHIL [5]: 0 CELLS/uL
- ABSOLUTE EOSINOPHIL [5]: 0 CELLS/uL
- ABSOLUTE LYMPHOCYTE [5]: 14176.33 CELLS/uL
- ABSOLUTE MONOCYTE [5]: 62.33 CELLS/uL
- ABSOLUTE SEGMENTED NEUTROPHIL [5]: 1228 CELLS/uL
- BASOPHIL [5]: 0%
- EOSINOPHIL [5]: 0%
- ERYTHROCYTE COUNT [5]: 5.56 x10E6/uL
- HEMATOCRIT [5]: 36.17%
- HEMOGLOBIN [5]: 14.13 G/DL
- LEUKOCYTE COUNT [5]: 15.47 x10E3/uL
- LYMPHOCYTE [5]: 92.33%
- MEAN CORPUSCULAR HEMOGLOBIN [5]: 25.5 pg
- MEAN CORPUSCULAR HEMOGLOBIN CONCENTRATION [5]: 39.1 G/DL
- MEAN CORPUSCULAR VOLUME [5]: 65.23 fL
- MONOCYTE [5]: 0.33%
- NEUTROPHIL [5]: 7.33%
- NUCLEATED RED BLOOD CELLS [5]: 0 /100WBC
- PLATELET COUNT [5]: 1347.67 x10E3/uL
- ALANINE AMINOTRANSFERASE [5]: 51 u/L
- ALBUMIN [5]: 4.17 G/DL
- ALKALINE PHOSPHATASE [5]: 318.33 u/L
- ASPARTATE AMINOTRANSFERASE [5]: 80 u/L
- BLOOD UREA NITROGEN [5]: 17.33 mg/dL
- CARBON DIOXIDE [5]: 29 mmol/L
- CHLORIDE [5]: 100 MEQ/L
- CHOLESTEROL [5]: 75.33 mg/dL
- CREATINE PHOSPHOKINASE [5]: 240 u/L
- CREATININE [5]: 0.17 mg/dL
- GLUCOSE [5]: 165.33 mg/dL
- LACTATE DEHYDROGENASE [5]: 290 u/L
- LIPASE [5]: 9.67 u/L
- PHOSPHORUS [5]: 12.97 mg/dL
- POTASSIUM [5]: 6.07 MEQ/L
- SODIUM [5]: 146.03 MEQ/L
- TOTAL BILIRUBIN [5]: 0.17 mg/dL
- TOTAL PROTEIN [5]: 6.07 G/DL
- URIC ACID [5]: 1.5 mg/dL

— ChEMBL document CHEMBL3885881, “DrugMatrix”
